pEC50: −log10 of the molar value. Counter-ions that a name gives are not always drawn.

In the assay the test system is muscle progenitors derived from DMD hiPSC. Nature of the assay: Myotube assay: total myotube area per well (alpha-actinin staining). It counts as cell-based, human. The note with it: Homo sapiens, Myotube, 72 h, DMD or WT cell source not given; for Emax: efficacy, MA = normalized Myotube Area, 3 days incubation; for pEC50: myogenic activity, half-maximal generation of myotubes, 10 points dose-response 1.5 nM to 30 µM, 3 days. An outline of the steps:
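DMD hiPSC-derived muscle progenitors (NCRM-1 background) plated at 3500 cells/well in K5 medium with 5 µM Y-27632, then exposed to compound at 1.5 nM–30 µM for 3 days at 37°C. Cells fixed on day 7, alpha-actinin-immunostained and total myotube area per well quantified; duplicates averaged, EC50 and normalized myotube area derived.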

As to `CSc1cc(Oc2ccnc3[nH]c(=O)cnc23)ccc1NC(=O)Nc1cc(C(C)(C)C)nn1-c1ccc(OCCN2CCOCC2)cc1` [(cf), 1-(3-(tert-butyl)-1-(4-(2-morpholinoethoxy)phenyl)-1 H-pyrazol-5-yl)-3-(2-(methylthio)-4-((3-oxo-3,4-dihydropyrido[2,3-b]pyrazin-8-yl)oxy)phenyl)urea], the maximum response (Emax) is at least 75% and the pEC50 is 6.00 to 6.30.

`CSc1cc(Oc2ccnc3c2CCC(=O)N3)ccc1NC(=O)Nc1cncc(C(F)(F)F)c1` [(cg), 1-(2-(methylthio)-4-((7-oxo-5,6,7,8-tetrahydro-1,8-naphthyridin-4-yl)oxy)phenyl)-3-(5-(trifluoromethyl)pyridin-3-yl)urea]: the Emax is at least 75% and the pEC50 was at most 5.30.

With `CSc1cc(Oc2ccnc(N(CCN(C)C)C(=O)OC(C)(C)C)c2)ccc1NC(=O)Nc1cc(C(C)(C)C)nn1-c1ccccc1` [(ch), tert-butyl (4-(4-(3-(3-(tert-butyl)-1-phenyl-1H-pyrazol-5-yl)ureido)-3-(methylthio)phenoxy)pyridin-2-yl)(2-(dimethylamino)ethyl)carbamate], the Emax fell in the range of 50 to 75% and the pEC50 was at most 5.30.

Take `CSc1cc(Oc2cccc3c2CCC(=O)N3)ccc1NC(=O)Nc1cc(C(C)(C)C)nn1-c1ccccc1` [(ci), 1-(3-(tert-butyl)-1-phenyl-1H-pyrazol-5-yl)-3-(2-(methylthio)-4-((2-oxo-1,2,3,4-tetrahydroquinolin-5-yl)oxy)phenyl)urea]: the maximal effect (Emax) was in the range of 25 to 50% and the pEC50 is at most 5.30.

For the compound `CSc1cc(Oc2ccnc3[nH]c(=O)cnc23)ccc1NC(=O)Nc1nnc(C(C)(C)C)o1` [(cj), 1-(5-(tert-butyl)-1,3,4-oxadiazol-2-yl)-3-(2-(methylthio)-4-((3-oxo-3,4-dihydropyrido[2,3-b]pyrazin-8-yl)oxy)phenyl)urea], the Emax is at least 75% and the pEC50 is at most 5.30.

`CSc1cc(Oc2ccnc(NCCN(C)C)c2)ccc1NC(=O)Nc1cc(C(C)(C)C)nn1-c1ccccc1` [(ck), 1-(3-(tert-butyl)-1-phenyl-1 H-pyrazol-5-yl)-3-(4-((2-((2-(dimethylamino)ethyl)amino)pyridin-4-yl)oxy)-2-(methylthio)phenyl)urea hydrochloride] had an Emax of at least 75% and a pEC50 of 6.00 to 6.30.

In turn, `CSc1cc(Oc2ccnc3[nH]c(=O)cnc23)ccc1NC(=O)Nc1cc(C(C)(C)C)nn1-c1ccc(C)c(Cl)c1` [(cl), 1-(3-(tert-butyl)-1-(3-chloro-4-methylphenyl)-1H-pyrazol-5-yl)-3-(2-(methylthio)-4-((3-oxo-3,4-dihydropyrido[2,3-b]pyrazin-8-yl)oxy)phenyl)urea] gave an Emax of at least 75% and a pEC50 above 6.30.

In turn, `CSc1cc(Oc2ccnc3[nH]c(=O)cnc23)ccc1NC(=O)Nc1cc(C(C)(C)C)nn1-c1ccc(F)c(Cl)c1` [(cm), 1-(3-(tert-butyl)-1-(3-chloro-4-fluorophenyl)-1H-pyrazol-5-yl)-3-(2-(methylthio)-4-((3-oxo-3,4-dihydropyrido[2,3-b]pyrazin-8-yl)oxy)phenyl)urea] had an Emax of at least 75% and a pEC50 of 6.00 to 6.30.

Take `CSc1cc(Oc2cccc3[nH]ncc23)ccc1NC(=O)Nc1cc(C(C)(C)C)nn1-c1ccccc1` [(cn), 1-(4-((1H-indazol-4-yl)oxy)-2-(methylthio)phenyl)-3-(3-(tert-butyl)-1-phenyl-1H-pyrazol-5-yl)urea]: the Emax was in the range of 50 to 75% and the pEC50 is 5.30 to 6.00.

Consider `CSc1cc(Oc2ccnc(C(=O)Nc3ccccc3)c2)ccc1NC(=O)Nc1cc(C(C)(C)C)nn1-c1ccccc1` [(co), 4-(4-(3-(3-(tert-butyl)-1-phenyl-1H-pyrazol-5-yl)ureido)-3-(methylthio)phenoxy)-N-phenylpicolinamide], for which the Emax lay within 25 to 50% and the pEC50 was at most 5.30.

As for `CC(C)(C)c1cc(NC(=O)Nc2ccc(Oc3ccnc4[nH]c(=O)cnc34)c(OC(F)(F)F)c2)n(-c2ccccc2)n1` [(cp), 1-(3-(tert-butyl)-1-phenyl-1H-pyrazol-5-yl)-3-(4-((3-oxo-3,4-dihydropyrido[2,3-b]pyrazin-8-yl)oxy)-3-(trifluoromethoxy)phenyl)urea], the Emax lay within 50 to 75% and the pEC50 is 6.00 to 6.30.

For `CC(C)(C)c1cc(NC(=O)Nc2cc(Oc3ccnc4[nH]c(=O)cnc34)ccc2F)n(-c2ccccc2)n1` [(cq), 1-(3-(tert-butyl)-1-phenyl-1 H-pyrazol-5-yl)-3-(2-fluoro-5-((3-oxo-3,4-dihydropyrido[2,3-b]pyrazin-8-yl)oxy)phenyl)urea], the Emax is at least 75% and the pEC50 is 6.00 to 6.30.

`CSc1cc(Oc2ccnc3[nH]c(=O)cnc23)ccc1NC(=O)Nc1cc(C(C)(C)C)nn1-c1ccc(OCCCN(C)C)cc1` [(cr), 1-(3-(tert-butyl)-1-(4-(3-(dimethylamino)propoxy)phenyl)-1H-pyrazol-5-yl)-3-(2-(methylthio)-4-((3-oxo-3,4-dihydropyrido[2,3-b]pyrazin-8-yl)oxy)phenyl)urea] showed an Emax of at least 75% and a pEC50 above 6.30.

For `CC(C)(C)c1cc(NC(=O)Nc2ccc(C(=O)c3ccncc3)cc2)n(-c2ccccc2)n1` [(cs), 1-(3-(tert-butyl)-1-phenyl-1 H-pyrazol-5-yl)-3-(4-isonicotinoylphenyl)urea], the maximum response (Emax) fell in the range of 25 to 50% and the pEC50 is at most 5.30.

`CSc1cc(Oc2ccnc3c2OCC(=O)N3)ccc1NC(=O)Nc1cc(C(C)(C)C)nn1-c1ccccc1` [(ct), 1-(3-(tert-butyl)-1-phenyl-1H-pyrazol-5-yl)-3-(2-(methylthio)-4-((3-oxo-3,4-dihydro-2H-pyrido[3,2-b][1,4]oxazin-8-yl)oxy)phenyl)urea] gave an Emax of at least 75% and a pEC50 above 6.30.

Take `CC(C)(C)c1cnc(NC(=O)Nc2ccc(Oc3ccnc4c3CCC(=O)N4)c3ccccc23)s1` [(cu), 1-(5-(tert-butyl)thiazol-2-yl)-3-(4-((7-oxo-5,6,7,8-tetrahydro-1,8-naphthyridin-4-yl)oxy)naphthalen-1-yl)urea]: the Emax was at least 75% and the pEC50 is above 6.30.

`CCOC(=O)Nc1cc(Oc2ccc(NC(=O)Nc3cc(C(C)(C)C)nn3-c3ccccc3)c(SC)c2)ccn1` [(cv), ethyl (4-(4-(3-(3-(tert-butyl)-1-phenyl-1H-pyrazol-5-yl)ureido)-3-(methylthio)phenoxy)pyridin-2-yl)carbamate] gave an Emax of at least 75% and a pEC50 above 6.30.

Compound `CC(C)(C)c1cc(NC(=O)Nc2cccc(Oc3ccnc4[nH]c(=O)cnc34)c2F)n(-c2ccccc2)n1` [(cw), 1-(3-(tert-butyl)-1-phenyl-1 H-pyrazol-5-yl)-3-(2-fluoro-3-((3-oxo-3,4-dihydropyrido[2,3-b]pyrazin-8-yl)oxy)phenyl)urea] gave an Emax of at least 75% and a pEC50 of at most 5.30.

Compound `CSc1cc(Oc2ccnc(NC(=O)OCc3ccccc3)c2)ccc1NC(=O)Nc1cc(C(C)(C)C)nn1-c1ccccc1` [(cx), benzyl (4-(4-(3-(3-(tert-butyl)-1-phenyl-1H-pyrazol-5-yl)ureido)-3-(methylthio)phenoxy)pyridin-2-yl)carbamate] had an Emax of at least 75% and a pEC50 of 6.00 to 6.30.

With `CSc1cc(Oc2ccnc3c2OCCN3)ccc1NC(=O)Nc1cc(C(C)(C)C)nn1-c1ccccc1` [(cy), 1-(3-(tert-butyl)-1-phenyl-1H-pyrazol-5-yl)-3-(4-((3,4-dihydro-2H-pyrido[3,2-b][1,4]oxazin-8-yl)oxy)-2-(methylthio)phenyl)urea], the Emax is at least 75% and the negative-log EC50 (pEC50) is 6.00 to 6.30.

The compound `CSc1cc(Oc2ccnc3c2CCC(=O)N3)ccc1NC(=O)Nc1cc(C(C)(C)C)no1` [(cz), 1-(3-(tert-butyl)isoxazol-5-yl)-3-(2-(methylthio)-4-((7-oxo-5,6,7,8-tetrahydro-1,8-naphthyridin-4-yl)oxy)phenyl)urea] gave a maximal effect (Emax) of at least 75% and a pEC50 of 6.00 to 6.30.

In the case of `O=C(Nc1ccc(Oc2ccnc3[nH]c(=O)cnc23)cc1F)Nc1cc(C2(C(F)(F)F)CC2)nn1-c1ccccc1` [(d), 1-(2-fluoro-4-((3-oxo-3,4-dihydropyrido[2,3-b]pyrazin-8-yl)oxy)phenyl)-3-(1-phenyl-3-(1-(trifluoromethyl)cyclopropyl)-1 H-pyrazol-5-yl)urea], the Emax fell in the range of 50 to 75% and the pEC50 is 5.30 to 6.00.

Regarding `CCOC(=O)Nc1cc(Oc2ccc(NC(=O)Nc3cc(C(C)(C)C)nn3-c3ccccc3)c3ccccc23)ccn1` [(da), ethyl (4-((4-(3-(3-(tert-butyl)-1-phenyl-1 H-pyrazol-5-yl)ureido)naphthalen-1-yl)oxy)pyridin-2-yl)carbamate], the Emax was at least 75% and the negative logarithm of the EC50 (pEC50) is above 6.30.

`CCOC(=O)Nc1cc(Oc2ccc(NC(=O)Nc3cc(C(C)(C)C)no3)c3ccccc23)ccn1` [(db), ethyl (4-((4-(3-(3-(tert-butyl)isoxazol-5-yl)ureido)naphthalen-1-yl)oxy)pyridin-2-yl)carbamate] showed a maximum response (Emax) of at least 75% and a pEC50 above 6.30.

On to `CCOC(=O)Nc1cc(Oc2ccc(NC(=O)Nc3ncc(C(C)(C)C)s3)c3ccccc23)ccn1` [(dc), ethyl (4-((4-(3-(5-(tert-butyl)thiazol-2-yl)ureido)naphthalen-1-yl)oxy)pyridin-2-yl)carbamate], for which the Emax is at least 75% and the pEC50 is above 6.30.

In turn, `CSc1cc(Oc2ccnc3[nH]c(=O)cnc23)ccc1NC(=O)Nc1cc(C(C)(C)C)nn1-c1ccc(CN2CCOCC2)cc1` [(dd), 1-(3-(tert-butyl)-1-(4-(morpholinomethyl)phenyl)-1 H-pyrazol-5-yl)-3-(2-(methylthio)-4-((3-oxo-3,4-dihydropyrido[2,3-b]pyrazin-8-yl)oxy)phenyl)urea] gave an Emax of at least 75% and a negative logarithm of the EC50 (pEC50) above 6.30.

These data come from patent EP4029501A1, “COMBINATION OF POLYAROMATIC UREA DERIVATIVES AND GLUCOCORTICOID OR HDAC INHIBITOR FOR THE TREATMENT OF DISEASES OR CONDITIONS ASSOCIATED WITH MUSCLE CELLS AND/OR SATELLITE CELLS” (Anagenesis Biotechnologies, priority 2021, dated 2022).
